Test results as given in BindingDB's records for doi:10.1021/jm0506625 (Washington University, 2005).
Where a SMILES comes first, the peptide text is derived from it. [ ]: non-standard residue; d: D form. ξ: configuration not given here. Ile(3ξ) = CCC(C)[C@H](N)C(=O)O; Thr(3ξ) = CC(O)[C@H](N)C(=O)O

Key:
[1] = target: Caspase-8 (Homo sapiens, UniProt Q14790); test: Caspase Inhibition Assay
Method: (§1) The substrate peptides terminating in AMC are processed by caspases with or without inhibitors. […] Compounds were tested in duplicate, and IC50 curves were calculated for all inhibitors. Final IC50s were the average of three independent experiments.

[2] = target: T1, Caspase-3 (Homo sapiens, UniProt P42574); test: Caspase Inhibition Assay
T1 sequence (P42574 whole entry): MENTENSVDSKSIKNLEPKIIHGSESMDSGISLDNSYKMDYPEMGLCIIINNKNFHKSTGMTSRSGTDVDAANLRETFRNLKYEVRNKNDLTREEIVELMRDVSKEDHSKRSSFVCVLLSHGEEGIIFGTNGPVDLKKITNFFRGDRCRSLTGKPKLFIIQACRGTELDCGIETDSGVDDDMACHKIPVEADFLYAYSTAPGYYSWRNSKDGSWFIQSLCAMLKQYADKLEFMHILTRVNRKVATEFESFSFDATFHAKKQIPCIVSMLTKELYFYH
Method: as §1

Chain of Caspase-8 (Q14790 217-374 limits assumed): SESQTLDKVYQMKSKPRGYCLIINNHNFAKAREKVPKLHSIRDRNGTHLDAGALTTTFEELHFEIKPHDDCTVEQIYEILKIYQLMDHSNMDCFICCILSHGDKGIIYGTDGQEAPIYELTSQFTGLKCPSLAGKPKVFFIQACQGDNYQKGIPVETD
Chain of Caspase-8 (Q14790 385-479 limits assumed): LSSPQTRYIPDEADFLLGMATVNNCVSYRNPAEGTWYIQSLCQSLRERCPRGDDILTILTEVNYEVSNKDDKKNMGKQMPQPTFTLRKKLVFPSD

Row | SMILES | IC50 [1] [nM] | Ki [2] [nM]
1 | CCC(C)[C@H](NC(C)=O)C(=O)N[C@@H](CCC(=O)O)C(=O)N[C@H](C(=O)N[C@H](C=O)CC(=O)O)C(C)O (stereo partly drawn) [(4S)-4-{[(1S)-1-{[(2S)-1-carboxy-3-oxopropan-2-yl]carbamoyl}-2-hydroxypropyl]carbamoyl}-4-[(2S)-2-acetamido-3-methylpentanamido]butanoic acid] (Ac-[Ile(3ξ)]E[Thr(3ξ)]D-aldehyde) | 4.7 | –
2 | COc1ccc(CN2C(=O)C(=O)c3cc(S(=O)(=O)N4CCC[C@H]4COc4cccnc4)ccc32)cc1 [1-[(4-methoxyphenyl)methyl]-5-{[(2S)-2-[(pyridin-3-yloxy)methyl]pyrrolidine-1-]sulfonyl}-2,3-dihydro-1H-indole-2,3-dione] | – | 4.4
